Assays:
Type in all cases: cell-based
Streptococcus mutans = test: Twenty-four hour biofilm growth (crystal violet); settings: 24 hours, control = 1
Experimental: (§1) The increase in biofilm formation of the tested bacteria in response to selected glycosides (β-methyl-D-galactoside and α-methyl-D-galactoside) was investigated by setting up biofilm growth assays in a nutritionally rich medium (brain heart infusion broth (BHI), Oxoid), over 24 hours. Late exponential growth phase liquid cultures were prepared by transferring the respective bacterium from blood agar plates to BHI and overnight incubation at 37° C. in an anaerobic atmosphere for A. viscosus, V. parvula, P. gingivalis, P. intermedia, T. forsythia, A. naeslundii, and C. sputigena, and in a 5% CO2 environment for S. salivarius, S. sanguinis, S. mitis, A. actinomycetemcomitans, S. mutans, and S. gordonii. Overnight cultures were transferred to BHI and adjusted to a concentration of 1×10^7 CFU/ml by measuring the optical density at 600 nm (OD600) (BioRad SmartSpec 3000). For each strain, 200 μl of the bacterial suspension was added to a 96-well plate containing 20 μl of the respective glycosides. Final concentrations of the glycosides were set to 5, 10, 20 and 25 μmol/ml. […] Additionally, for each bacterium tested, a background control, to correct for background staining, was added. This background control contained the bacterium tested and 0.03 weight % chlorhexidine, as an antiseptic. Plates were incubated as previously described. After 24 hrs the supernatant was removed from the wells of the plates. The wells were washed twice with 1×100 μL PBS (phosphate buffered saline), fixed for 20 minutes with 96% vol. ethanol (96% vol. solution in water) and the biofilm retained at the bottom of the wells was stained with 1 weight % crystal violet (1 weight % solution in water). The bound dye was dissolved with 5% vol. acetic acid (5% vol. solution in water). Quantification of the stained biofilm was performed by measuring the absorbance at 630 nm using a Multiskan Ascent microplate reader (Thermo Scientific). […] The experiment was carried out on three different days (thus providing 3 biological replicas) and each day the experiment was carried out in quadruple (thus providing 4 technical replicas) for each combination of bacterium with glycoside and for each control. For each day and for each combination, the average (mean) of the values obtained (as detailed above) for the four technical replicas was calculated to provide a single value for each combination on each day. The values shown in Tables 7 to 8, below, are the average (mean) of the three single values obtained for each combination of bacterium with glycoside.

Actinomyces naeslundii [1] = test: Twenty-four hour biofilm growth (crystal violet); settings: 24 hours, control = 1
Experimental: as §1

[2] = test system: Aggregatibacter actinomycetemcomitans; test: Twenty-four hour biofilm growth (crystal violet); settings: 24 hours, control = 1
Experimental: as §1

Streptococcus salivarius = test: Twenty-four hour biofilm growth (crystal violet); settings: 24 hours, control = 1
Experimental: as §1

Actinomyces viscosus = test: Twenty-four hour biofilm growth (crystal violet); settings: 24 hours, control = 1
Experimental: as §1

Prevotella intermedia = test: Twenty-four hour biofilm growth (crystal violet); settings: 24 hours, control = 1
Experimental: as §1

Streptococcus gordonii = test: Twenty-four hour optical density growth in BHI; settings: over 24 hours, control = 1
Experimental: (§2) The extent of growth of the tested bacteria in response to selected glycosides (β-methyl-D-galactoside and α-methyl-D-galactoside) was investigated by setting up growth curves in a nutritionally rich medium (brain heart infusion broth (BHI), Oxoid), over 24 hours. Late exponential growth phase liquid cultures were prepared by transferring the respective bacterium from blood agar plates to BHI and overnight incubation at 37° C. in an anaerobic atmosphere for A. viscosus, V. parvula, F. nucleatum, P. gingivalis, P. intermedia, T. forsythia, A. naeslundii, and C. sputigena, and in a 5% CO2 environment for S. salivarius, S. sanguinis, S. mitis, A. actinomycetemcomitans, S. mutans, S. sobrinus and S. gordonii. Overnight cultures were transferred to BHI and adjusted to a concentration of 1×10^7 CFU/ml (colony forming units per ml) by measuring the optical density at 600 nm (OD600) (BioRad SmartSpec 3000). For each strain, 200 μl of the bacterial suspension was added to a 96-well plate containing 20 μl of the respective glycosides. Final concentrations of the glycosides were set to 5, 10, 20 and 25 μmol/ml. […] Plates were incubated as previously described. For each combination of bacterium/glycoside, and for each of their respective controls (i.e. the particular bacterium in the nutritionally rich medium with no glycoside), the optical density was measured at 630 nm (OD630) at 0 h and 24 h (Thermo Scientific Multiskan Ascent). Additionally, the OD630 for combinations of bacterium/glycosides grown in a 5% CO2 environment were also measured every hour between 0 h and 9 h. […] The experiment was carried out on three different days (thus providing 3 biological replicas) and on each day the experiment was carried out in quadruple (thus providing 4 technical replicas) for each combination of bacterium with glycoside and for each control. For each day and for each combination, the average (mean) of the values obtained (as detailed above) for the four technical replicas was calculated to provide a single value for each combination on each day. The values shown in Tables 5 to 6, below, are the average (mean) of the three single values obtained for each combination of bacterium with glycoside (α-Methyl-D-Galactoside=α-MDG; β-Methyl-D-Galactoside=β-MDG).

Capnocytophaga sputigena = test: Twenty-four hour optical density growth in BHI; settings: over 24 hours, control = 1
Experimental: as §2

Actinomyces naeslundii [3] = test: Twenty-four hour optical density growth in BHI; settings: over 24 hours, control = 1
Experimental: as §2

[4] = test system: Aggregatibacter actinomycetemcomitans; test: Twenty-four hour optical density growth in BHI; settings: over 24 hours, control = 1
Experimental: as §2

Fusobacterium nucleatum = test: Twenty-four hour optical density growth in BHI; settings: over 24 hours, control = 1
Experimental: as §2

Streptococcus sobrinus = test: Twenty-four hour optical density growth in BHI; settings: over 24 hours, control = 1
Experimental: as §2

CO[C@H]1O[C@H](CO)[C@H](O)[C@H](O)[C@H]1O [α-methyl-D-galactoside]
biofilm OD 630 nm divided by control (biofilm growth) (Streptococcus mutans; 5 μmol/ml): 1.2046
biofilm OD 630 nm divided by control (biofilm growth) (Streptococcus mutans; 10 μmol/ml): 1.3284
biofilm OD 630 nm divided by control (biofilm growth) (Streptococcus mutans; 20 μmol/ml): 1.5452
biofilm OD 630 nm divided by control (biofilm growth) (Streptococcus mutans; 25 μmol/ml): 1.7240
biofilm OD 630 nm divided by control (biofilm growth) (Actinomyces naeslundii [1]; 5 μmol/ml): 0.9655
biofilm OD 630 nm divided by control (biofilm growth) (Actinomyces naeslundii [1]; 10 μmol/ml): 0.9764
biofilm OD 630 nm divided by control (biofilm growth) (Actinomyces naeslundii [1]; 20 μmol/ml): 0.9692
biofilm OD 630 nm divided by control (biofilm growth) (Actinomyces naeslundii [1]; 25 μmol/ml): 0.9789
biofilm OD 630 nm divided by control (biofilm growth) ([2]; 5 μmol/ml): 0.9911
biofilm OD 630 nm divided by control (biofilm growth) ([2]; 10 μmol/ml): 0.9943
biofilm OD 630 nm divided by control (biofilm growth) ([2]; 20 μmol/ml): 1.1846
biofilm OD 630 nm divided by control (biofilm growth) ([2]; 25 μmol/ml): 1.1720
biofilm OD 630 nm divided by control (biofilm growth) (Streptococcus salivarius; 5 μmol/ml): 0.9165
biofilm OD 630 nm divided by control (biofilm growth) (Streptococcus salivarius; 10 μmol/ml): 0.9115
biofilm OD 630 nm divided by control (biofilm growth) (Streptococcus salivarius; 20 μmol/ml): 1.1202
biofilm OD 630 nm divided by control (biofilm growth) (Streptococcus salivarius; 25 μmol/ml): 0.9258
biofilm OD 630 nm divided by control (biofilm growth) (Actinomyces viscosus; 5 μmol/ml): 0.7268
biofilm OD 630 nm divided by control (biofilm growth) (Actinomyces viscosus; 10 μmol/ml): 0.7293
biofilm OD 630 nm divided by control (biofilm growth) (Actinomyces viscosus; 20 μmol/ml): 0.7490
biofilm OD 630 nm divided by control (biofilm growth) (Actinomyces viscosus; 25 μmol/ml): 0.6777
biofilm OD 630 nm divided by control (biofilm growth) (Prevotella intermedia; 5 μmol/ml): 1.1518
biofilm OD 630 nm divided by control (biofilm growth) (Prevotella intermedia; 10 μmol/ml): 1.1589
biofilm OD 630 nm divided by control (biofilm growth) (Prevotella intermedia; 20 μmol/ml): 1.0758
biofilm OD 630 nm divided by control (biofilm growth) (Prevotella intermedia; 25 μmol/ml): 0.9774
maximal OD630 divided by control (extent of growth) (Streptococcus gordonii; 5 μmol/ml): 0.9997
maximal OD630 divided by control (extent of growth) (Streptococcus gordonii; 10 μmol/ml): 0.9966
maximal OD630 divided by control (extent of growth) (Streptococcus gordonii; 20 μmol/ml): 1.0089
maximal OD630 divided by control (extent of growth) (Streptococcus gordonii; 25 μmol/ml): 1.0255
maximal OD630 divided by control (extent of growth) (Capnocytophaga sputigena; 5 μmol/ml): 0.8698
maximal OD630 divided by control (extent of growth) (Capnocytophaga sputigena; 10 μmol/ml): 0.8897
maximal OD630 divided by control (extent of growth) (Capnocytophaga sputigena; 20 μmol/ml): 0.8728
maximal OD630 divided by control (extent of growth) (Capnocytophaga sputigena; 25 μmol/ml): 0.8809
maximal OD630 divided by control (extent of growth) (Actinomyces naeslundii [3]; 5 μmol/ml): 0.9762
maximal OD630 divided by control (extent of growth) (Actinomyces naeslundii [3]; 10 μmol/ml): 0.9994
maximal OD630 divided by control (extent of growth) (Actinomyces naeslundii [3]; 20 μmol/ml): 0.9595
maximal OD630 divided by control (extent of growth) (Actinomyces naeslundii [3]; 25 μmol/ml): 0.9481
maximal OD630 divided by control (extent of growth) ([4]; 5 μmol/ml): 0.7382
maximal OD630 divided by control (extent of growth) ([4]; 10 μmol/ml): 0.7398
maximal OD630 divided by control (extent of growth) ([4]; 20 μmol/ml): 0.7462
maximal OD630 divided by control (extent of growth) ([4]; 25 μmol/ml): 0.7395
maximal OD630 divided by control (extent of growth) (Fusobacterium nucleatum; 5 μmol/ml): 0.8598
maximal OD630 divided by control (extent of growth) (Fusobacterium nucleatum; 10 μmol/ml): 0.8398
maximal OD630 divided by control (extent of growth) (Fusobacterium nucleatum; 20 μmol/ml): 0.7917
maximal OD630 divided by control (extent of growth) (Fusobacterium nucleatum; 25 μmol/ml): 0.7921
maximal OD630 divided by control (extent of growth) (Streptococcus sobrinus; 5 μmol/ml): 0.9005
maximal OD630 divided by control (extent of growth) (Streptococcus sobrinus; 10 μmol/ml): 0.8975
maximal OD630 divided by control (extent of growth) (Streptococcus sobrinus; 20 μmol/ml): 0.8858
maximal OD630 divided by control (extent of growth) (Streptococcus sobrinus; 25 μmol/ml): 0.9052

Source: patent US10307357B2, “Prebiotic oral care compositions containing an alkyl glycoside” (COLGATE-PALMOLIVE COMPANY, priority 2013, dated 2019)
